Patent publication US5675003A, “3-ammoniopropenyl cephalosporin compounds as antibacterial agents” (Korea Institute of Science and Technology, priority 1995, dated 1997)
Values after ≈ are worked out from the molar mass of the structure shown.

Key:
Assay in all cases: MIC, in vitro agar dilution method
Assay type in all cases: cell-based
[1] = test system: Enterobacter cloacae P 99; conditions: Enterobacter cloacae, P99
Description: (§1) The MICs of the new cephalosporins of the present invention against Gram-positive and Gram-negative bacteria were determined by an in vitro agar dilution method. For comparisons, the MIC values of ceftazidime are also listed.
(§2) In vitro antimicrobial activity of the cephalosporins (l) (MIC:
En.c.1, Enterobacter cloacae P 99;

[2] = test system: Staphlococcus aureus SG 511; conditions: S.a.1, Staphlococcus aureus SG 511; agar dilution; read-out: MIC
Description: as §1, §2
S.a.1, Staphlococcus aureus SG 511;

[3] = test system: Staphylococcus aureus 285; conditions: S.a.2, Staphylococcus aureus 285; agar dilution; read-out: MIC
Description: as §1, §2
E.c. TEM, S.a. 2, Staphylococcus aureus 285;

[4] = test system: Pseudomonas aeruginosa 1771 M; conditions: P.a.4, Pseudomonas aeruginosa 1771 M; agar dilution; read-out: MIC
Description: as §1, §2
P.a.4, Pseudomonas aeruginosa 1771 M;

[5] = test system: Streptococcus pyogenes A 77; conditions: A77; S.p.2, Streptococcus pyogenes A 77; agar dilution; read-out: MIC
Description: as §1, §2
S.p.2, Streptococcus pyogenes A 77;

[6] = test system: Pseudomonas aeruginosa 1592 E; conditions: P.a.2, Pseudomonas aeruginosa 1592 E; agar dilution; read-out: MIC
Description: as §1, §2
P.a.2, Pseudomonas aeruginosa 1592 E;

[7] = test system: Enterobacter cloacae 1321 E; conditions: En.c.2, Enterobacter cloacae 1321 E; agar dilution; read-out: MIC
Description: as §1, §2
En.c.2, Enterobacter cloacae 1321 E.

[8] = test system: Klebsiella aerogenes 1552 E; conditions: K.a., Klebsiella aerogenes 1552 E; agar dilution; read-out: MIC
Description: as §1, §2
K.a., Klebsiella aerogenes 1552 E;

[9] = test system: Pseudomonas eruginosa 1771; conditions: P.a.3, Pseudomonas eruginosa 1771
Description: as §1, §2
P.a.3, Pseudomonas eruginosa 1771;

[10] = test system: E.c.5; conditions: Escherichia coli, E.c.5 (strain not defined)
Description: as §1

[11] = test system: Escherichia coli DC0; conditions: E.c.2, Escherichia coli DC0
Description: as §1, §2
E.c.2, Escherichia coli DC0;

[12] = test system: Salmonella typhimurium; conditions: Salmonella enterica; S.t., Salmonella typhimurium; agar dilution; read-out: MIC
Description: as §1, §2
S.t., Salmonella typhimurium;

[13] = test system: Streptococcus faecium MD; conditions: Enterococcus faecium; S.f., Streptococcus faecium MD; agar dilution; read-out: MIC
Description: as §1, §2
S.f., Streptococcus faecium MD;

[14] = test system: Staphylococcus aureus 503; conditions: S.a.3, Staphylococcus aureus 503; agar dilution; read-out: MIC
Description: as §1, §2
S.a.3, Staphylococcus aureus 503;

[15] = test system: Escherichia coli 1507 E; conditions: E.c.4, Escherichia coli 1507 E
Description: as §1, §2
E.c.4, Escherichia coli 1507 E;

[16] = test system: Klebsiella oxytoca 1082 E; conditions: K.o., Klebsiella oxytoca 1082 E; agar dilution; read-out: MIC
Description: as §1, §2
K.o., Klebsiella oxytoca 1082 E;

[17] = test system: Streptococcus pyogenes 308 A; conditions: S.p.1, Streptococcus pyogenes 308 A; agar dilution; read-out: MIC
Description: as §1, §2
S.p.1, Streptococcus pyogenes 308 A;

[18] = test system: Escherichia coli O55; conditions: E.c.1, Escherichia coli O55
Description: as §1, §2
E.c.1, Escherichia coli O55;

[19] = test system: Escherichia coli TEM; conditions: E.c.3, Escherichia coli TEM
Description: as §1, §2
E.c.3, Escherichia coli TEM;

[20] = test system: Pseudomonas aeruginosa 9027; conditions: P.a.1, Pseudomonas aeruginosa 9027; agar dilution; read-out: MIC
Description: as §1, §2
P.a.1, Pseudomonas aeruginosa 9027;

Row | Structure (SMILES) | MIC [1] | MIC [2] | MIC [3] | MIC [4] | MIC [5] | MIC [6] | MIC [7] | MIC [8] | MIC [9] | MIC [10] | MIC [11] | MIC [12] | MIC [13] | MIC [14] | MIC [15] | MIC [16] | MIC [17] | MIC [18] | MIC [19] | MIC [20]
1 | CO/N=C(\C(=O)N[C@@H]1C(=O)N2C(C(=O)[O-])=C(/C=C/C[N+]3(C)C[C@@H](O)[C@@H](O)C3)CS[C@H]12)c1csc(N)n1 (stereo partly drawn) [1-a, 7β-[2-(2-Aminothiazol-4-yl)-(Z)-2-methoxyiminoacetamido]-3-[(E)-3-(meso-3,4-dihydroxy-1-methyl-1-pyrrolidinio)-1-propen-1-yl]-3-cephem-4-carboxylate] | 6.25 mg/L (≈ 11.6 µM) | 0.39 mg/L (≈ 0.724 µM) | 0.78 mg/L (≈ 1.45 µM) | 0.098 mg/L (≈ 0.182 µM) | 0.013 mg/L (≈ 0.0241 µM) | 3.13 mg/L (≈ 5.81 µM) | 0.013 mg/L (≈ 0.0241 µM) | 0.025 mg/L (≈ 0.0464 µM) | 1.56 mg/L (≈ 2.9 µM) | 0.049 mg/L (≈ 0.091 µM) | 0.049 mg/L (≈ 0.091 µM) | 0.013 mg/L (≈ 0.0241 µM) | 50 mg/L (≈ 92.8 µM) | 0.2 mg/L (≈ 0.371 µM) | 0.049 mg/L (≈ 0.091 µM) | 3.13 mg/L (≈ 5.81 µM) | 0.013 mg/L (≈ 0.0241 µM) | 0.013 mg/L (≈ 0.0241 µM) | 0.025 mg/L (≈ 0.0464 µM) | 3.13 mg/L (≈ 5.81 µM)
2 | CO/N=C(\C(=O)N[C@@H]1C(=O)N2C(C(=O)[O-])=C(/C=C/C[N+](C)(CCO)CCO)CS[C@H]12)c1csc(N)n1 [1-d] | 6.25 mg/L (≈ 11.6 µM) | 0.39 mg/L (≈ 0.721 µM) | 0.78 mg/L (≈ 1.44 µM) | 0.098 mg/L (≈ 0.181 µM) | 0.004 mg/L (≈ 0.0074 µM) | 1.56 mg/L (≈ 2.89 µM) | 0.013 mg/L (≈ 0.024 µM) | 0.025 mg/L (≈ 0.0462 µM) | 0.78 mg/L (≈ 1.44 µM) | 0.049 mg/L (≈ 0.0906 µM) | 0.049 mg/L (≈ 0.0906 µM) | 0.025 mg/L (≈ 0.0462 µM) | 50 mg/L (≈ 92.5 µM) | 0.2 mg/L (≈ 0.37 µM) | 0.098 mg/L (≈ 0.181 µM) | 0.78 mg/L (≈ 1.44 µM) | 0.013 mg/L (≈ 0.024 µM) | 0.013 mg/L (≈ 0.024 µM) | 0.013 mg/L (≈ 0.024 µM) | 3.13 mg/L (≈ 5.79 µM)
3 | CO/N=C(\C(=O)N[C@@H]1C(=O)N2C(C(=O)[O-])=C(/C=C/C[N+]3(C)C[C@H](O)[C@@H](O)C3)CS[C@H]12)c1csc(N)n1 [1-b, 7β-[2-(2-Aminothiazol-4-yl)-(Z)-2-methoxyiminoacetamido]-3-[(E)-3-(3S,4S-dihydroxy-1-methyl-1-pyrrolidinio)-1-propen-1-yl]-3-cephem-4-carboxylate] | 3.13 mg/L (≈ 5.81 µM) | 0.39 mg/L (≈ 0.724 µM) | 0.78 mg/L (≈ 1.45 µM) | 0.098 mg/L (≈ 0.182 µM) | 0.007 mg/L (≈ 0.013 µM) | 1.56 mg/L (≈ 2.9 µM) | 0.013 mg/L (≈ 0.0241 µM) | 0.025 mg/L (≈ 0.0464 µM) | 1.56 mg/L (≈ 2.9 µM) | 0.049 mg/L (≈ 0.091 µM) | 0.049 mg/L (≈ 0.091 µM) | 0.025 mg/L (≈ 0.0464 µM) | 50 mg/L (≈ 92.8 µM) | 0.2 mg/L (≈ 0.371 µM) | 0.049 mg/L (≈ 0.091 µM) | 0.78 mg/L (≈ 1.45 µM) | 0.013 mg/L (≈ 0.0241 µM) | 0.025 mg/L (≈ 0.0464 µM) | 0.025 mg/L (≈ 0.0464 µM) | 3.13 mg/L (≈ 5.81 µM)
4 | CO/N=C(\C(=O)N[C@@H]1C(=O)N2C(C(=O)[O-])=C(/C=C/C[N+]3(C)CC[C@H](O)[C@H](O)C3)CS[C@H]12)c1csc(N)n1 (relative stereo) [1-e, 7β-[2-(2-Aminothiazol-4-yl)-(Z)-2-methoxyiminoacetamido]-3-[(E)-3-(3,4-cis-dihydroxy-1-methyl-1-piperidinio)-1-propen-1-yl]-3-cephem-4-carboxylate] | 6.25 mg/L (≈ 11.3 µM) | 0.39 mg/L (≈ 0.706 µM) | 0.78 mg/L (≈ 1.41 µM) | 0.2 mg/L (≈ 0.362 µM) | 0.013 mg/L (≈ 0.0235 µM) | 3.13 mg/L (≈ 5.66 µM) | 0.025 mg/L (≈ 0.0452 µM) | 0.025 mg/L (≈ 0.0452 µM) | 1.56 mg/L (≈ 2.82 µM) | 0.049 mg/L (≈ 0.0887 µM) | 0.049 mg/L (≈ 0.0887 µM) | 0.025 mg/L (≈ 0.0452 µM) | 50 mg/L (≈ 90.5 µM) | 0.2 mg/L (≈ 0.362 µM) | 0.049 mg/L (≈ 0.0887 µM) | 3.13 mg/L (≈ 5.66 µM) | 0.013 mg/L (≈ 0.0235 µM) | 0.025 mg/L (≈ 0.0452 µM) | 0.025 mg/L (≈ 0.0452 µM) | 6.25 mg/L (≈ 11.3 µM)
5 | CON=C(C(=O)NC1C(=O)N2C(C(=O)[O-])=C(C=CC[N+]3(C)C4CCC3CC(O)C4)CSC12)c1csc(N)n1 (stereo not drawn) [1-i, 7β-[2-(2-Aminothiazol-4-yl)-(Z)-2-methoxyiminoacetamido]-3-[(E)-3-tropinio-1-propen-1-yl]-3-cephem-4-carboxylate] | 6.25 mg/L (≈ 11.1 µM) | 0.39 mg/L (≈ 0.693 µM) | 0.78 mg/L (≈ 1.39 µM) | 0.2 mg/L (≈ 0.355 µM) | 0.013 mg/L (≈ 0.0231 µM) | 3.13 mg/L (≈ 5.56 µM) | 0.025 mg/L (≈ 0.0444 µM) | 0.025 mg/L (≈ 0.0444 µM) | 1.56 mg/L (≈ 2.77 µM) | 0.049 mg/L (≈ 0.0871 µM) | 0.049 mg/L (≈ 0.0871 µM) | 0.049 mg/L (≈ 0.0871 µM) | 50 mg/L (≈ 88.9 µM) | 0.2 mg/L (≈ 0.355 µM) | 0.098 mg/L (≈ 0.174 µM) | 1.56 mg/L (≈ 2.77 µM) | 0.013 mg/L (≈ 0.0231 µM) | 0.025 mg/L (≈ 0.0444 µM) | 0.025 mg/L (≈ 0.0444 µM) | 6.25 mg/L (≈ 11.1 µM)
